In ChEMBL document CHEMBL1151474, “Replication of Colonic Crohn's Disease Mucosal Escherichia coli Isolates within Macrophages and Their Susceptibility to Antibiotics” (Antimicrob Agents Chemother, 2008):
Values after ≈ are worked out from the molar mass of the structure shown. Active and inactive are the calls of the source. The rule behind the calls is not given here.

What was measured:
Escherichia coli [1] = assay: Antibacterial activity against mucosa-associated Escherichia coli isolate HM456 isolated from patient with irritable bowel syndrome or sporadic polyps after 24 hrs by Etest antibiotic concentration gradient method; assay type: functional; conditions: isolate HM456, 24 h
Escherichia coli [2] = assay: Antibacterial activity against mucosa-associated Escherichia coli isolate HM463 isolated from patient with irritable bowel syndrome or sporadic polyps after 24 hrs by Etest antibiotic concentration gradient method; conditions: isolate HM463, 24 h
Escherichia coli [3] = assay: Antibacterial activity against Escherichia coli isolate HM605 isolated from colonic mucosal biopsies of patient with Crohn's disease
Escherichia coli [4] = assay: Antibacterial activity against gentamicin-treated internalized Escherichia coli isolate HM580 in mouse J774A1 cells isolated from colonic mucosal biopsies of patient with Crohn's disease assessed as intracellular killing of bacteria at 10% compound Cmax after 3 hrs; assay type: functional, J774.A1
Escherichia coli [5] = assay: Antibacterial activity against Escherichia coli isolate HM154 isolated from colonic mucosal biopsies of patient with Crohn's disease after 24 hrs by Etest antibiotic concentration gradient method; assay type: functional; conditions: isolate HM154, 24 h
Escherichia coli [6] = assay: Antibacterial activity against Escherichia coli isolate HM580 isolated from colonic mucosal biopsies of patient with Crohn's disease after 24 hrs by Etest antibiotic concentration gradient method; assay type: functional; conditions: isolate HM580, 24 h
Escherichia coli [7] = assay: Antibacterial activity against gentamicin-treated internalized Escherichia coli isolate HM605 in mouse J774A1 cells isolated from colonic mucosal biopsies of patient with Crohn's disease assessed as intracellular killing of bacteria at 10% compound Cmax after 3 hrs; assay type: functional, J774.A1
Escherichia coli [8] = assay: Antibacterial activity against mucosa-associated Escherichia coli isolate HM484 isolated from patient with irritable bowel syndrome or sporadic polyps after 24 hrs by Etest antibiotic concentration gradient method; conditions: isolate HM484, 24 h
Escherichia coli [9] = assay: Antibacterial activity against gentamicin-treated internalized Escherichia coli isolate LF82 in mouse J774A1 cells isolated from chronic ileal lesions of patient with Crohn's disease assessed as intracellular killing of bacteria at 10% compound Cmax after 3 hrs; assay type: functional, J774.A1
Escherichia coli [10] = assay: Antibacterial activity Escherichia coli isolate HM419 isolated from ileo-colonic mucosal biopsies of patient with Crohn's disease after 24 hrs by Etest antibiotic concentration gradient method; assay type: functional; conditions: isolate HM419, 24 h
Escherichia coli [11] = assay: Antibacterial activity against mucosa-associated Escherichia coli isolate HM428 isolated from patient with irritable bowel syndrome or sporadic polyps after 24 hrs by Etest antibiotic concentration gradient method; assay type: functional; conditions: isolate HM428, 24 h
J774.A1 = assay: Cytotoxicity against mouse J774A1 cells assessed as release of adenylate kinase at 100 ug/ml after 3 hrs […] relative to control; assay type: cell-based; conditions: j774.a1, 3 h
Escherichia coli [12] = assay: Antibacterial activity Escherichia coli isolate HM413 isolated from ileo-colonic mucosal biopsies of patient with Crohn's disease after 24 hrs by Etest antibiotic concentration gradient method; assay type: functional; conditions: isolate HM413, 24 h
Escherichia coli [13] = assay: Antibacterial activity against Escherichia coli isolate HM95 isolated from ileal mucosal biopsies of patient with Crohn's disease after 24 hrs by Etest antibiotic concentration gradient method; assay type: functional; conditions: isolate HM95, 24 h
Escherichia coli [14] = assay: Antibacterial activity against Escherichia coli isolate LF82 isolated from colonic mucosal biopsies of patient with Crohn's disease after 24 hrs by Etest antibiotic concentration gradient method; conditions: isolate LF82, 24 h
Escherichia coli [15] = assay: Antibacterial activity against gentamicin-treated internalized Escherichia coli isolate HM615 in mouse J774A1 cells isolated from colonic mucosal biopsies of patient with Crohn's disease assessed as intracellular killing of bacteria at 10% compound Cmax after 3 hrs; assay type: functional, J774.A1
Escherichia coli [16] = assay: Antibacterial activity against mucosa-associated Escherichia coli isolate HM454 isolated from patient with irritable bowel syndrome or sporadic polyps after 24 hrs by Etest antibiotic concentration gradient method; assay type: functional; conditions: isolate HM454, 24 h
Escherichia coli [17] = assay: Antibacterial activity against Escherichia coli isolate HM615 isolated from colonic mucosal biopsies of patient with Crohn's disease after 24 hrs by Etest antibiotic concentration gradient method; assay type: functional; conditions: isolate HM615, 24 h
Escherichia coli [18] = assay: Antibacterial activity against mucosa-associated Escherichia coli isolate HM488 isolated from patient with irritable bowel syndrome or sporadic polyps after 24 hrs by Etest antibiotic concentration gradient method; conditions: isolate HM488, 24 h
Escherichia coli [19] = assay: Antibacterial activity against extracellular Escherichia coli isolate HM605 isolated from colonic mucosal biopsies of patient with Crohn's disease at 0.01 to 10 ug/ml after 3 hrs; assay type: functional, organism-based

MIC (Escherichia coli [5]): ≤ 1 µg/mL
MIC (Escherichia coli [6]): ≤ 1 µg/mL
MIC (Escherichia coli [10]): ≤ 1 µg/mL
MIC (Escherichia coli [12]): ≤ 1 µg/mL
MIC (Escherichia coli [13]): ≤ 1 µg/mL
MIC (Escherichia coli [14]): ≤ 1 µg/mL
MIC (Escherichia coli [17]): ≤ 1 µg/mL
SMILES: O=C(O)c1cn(C2CC2)c2cc(N3CCNCC3)c(F)cc2c1=O [CIPROFLOXACIN]
MIC (Escherichia coli [1]): ≤ 1 µg/mL
MIC (Escherichia coli [2]): ≤ 1 µg/mL
MBC (Escherichia coli [3]): 0.3 µg/mL (≈ 0.905 µM)
Activity (Escherichia coli [4]): 90.4%
Activity (Escherichia coli [7]): 86%
MIC (Escherichia coli [8]): ≤ 1 µg/mL
Activity (Escherichia coli [9]): 87.6%
MIC (Escherichia coli [11]): ≤ 1 µg/mL
Activity (J774.A1): 90%
Activity (Escherichia coli [15]): 83.8%
MIC (Escherichia coli [16]): ≤ 1 µg/mL
MIC (Escherichia coli [18]): ≤ 1 µg/mL
Activity (Escherichia coli [19]): Active
